From paper PMC4129439 (eLife, 2014) come the findings set out here.

Where a chain is given by its changes, count along the chain named. Where “and” joins values, the source holds several entries; their conditions need not be identical. Equal entries are not always repeated. Where two headings read alike, the source gives them in different places.

As usually defined, the Kd is the constant that tells how readily two partners part at equilibrium. For orientation: stoichiometry N means a count of units in the complex or per binding partner.

One data set concerns hSAA1, mSAA1, and mSAA3. Put plainly: Cholesterol competition of retinol binding to SAAs. The settings on record: 10 μM cholesterol, saturating retinol, fluorescence quenching at 334 nm. The source says: Figure 2. […] Plots are representative of five independent experiments. (C) Retinoic acid lacks intrinsic fluorescence, but can quench intrinsic protein fluorescence due to energy transfer from tryptophan residues ([Cogan et al., 1976]). All-trans-retinoic acid was titrated into mSAA3 and fluorescence quenching was monitored following excitation at 296 nm. The chemical structure of retinoic acid is shown. (D) All-trans-retinoic acid was titrated into hSAA1, mSAA1, mSAA3, hTfr, and ApoA1. Fluorescence emission was monitored at 334 nm with excitation at 296 nm as in (C). Plots are representative of three independent experiments. […] Additional ligand binding measurements are provided in Figure 2—figure supplements 1 and 2. DOI: http://dx.doi.org/10.7554/eLife.03206.007 Figure 2—figure supplement 1. […] DOI: http://dx.doi.org/10.7554/eLife.03206.008 [drawing 3] Figure 2—figure supplement 2. Additional ligand binding studies on human and mouse SAAs. […] Plots are representative of three independent experiments.
Steady state fluorescence was measured using a QuantaMaster 40 spectrofluorometer (Photon Technology International, Edison, NJ) and FelixGX software program. […] For retinoic acid and other retinoids, samples were excited at 296 nm and tryptophan quenching was monitored by emission at 334 nm. […]

Another data set has as its target T1, mouse SAA3 (mSAA3) (Mus musculus, UniProt P04918).
T1 construct: hexa-histidine tag followed by thrombin cleavage site (N, cleaved yes); made in house; host or cells: Escherichia coli BL21-CodonPlus (DE3)-RILP
T1 sequence (P04918 19-122): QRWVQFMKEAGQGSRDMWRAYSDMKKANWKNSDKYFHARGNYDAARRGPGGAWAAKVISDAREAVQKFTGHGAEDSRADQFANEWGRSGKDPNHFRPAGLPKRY
Put plainly: Fluorometric retinoid binding assay, mSAA3. Here is the method:
(§1) Retinoic acid lacks intrinsic fluorescence but can quench inherent protein fluorescence due to energy transfer from tryptophan residues ([Cogan et al., 1976]). We therefore measured retinoic acid binding using a modified fluorescence assay that monitored quenching of protein fluorescence (Figure 2C).
(§2) Steady state fluorescence was measured using a QuantaMaster 40 spectrofluorometer (Photon Technology International, Edison, NJ) and FelixGX software program. […] For retinoic acid and other retinoids, samples were excited at 296 nm and tryptophan quenching was monitored by emission at 334 nm. Experiments on mSAA1 and mSAA3 were done in 25 mM Tris pH 8.0, 100 mM NaCl, and 4 mM decyl maltopyranoside (DM). Experiments with hSAA1, human ApoA1, and human transferrin were conducted in PBS. […] All assays were done using a protein concentration of 0.5 μM.

The subject of data set [1] is SAA1 and 2 expression in HepG2 cells. As to the kind of experiment: SAA expression in HepG2 cells by Q-PCR. Format: cell-based, human. The text has this: (§3) Figure 1. SAA expression requires dietary vitamin A. (A) Mice were maintained on a normal (Vit. A+) diet or a vitamin A-deficient (Vit. A−) diet as in Figure 1—figure supplement 1. N = 3–5 mice per condition. (B) Ileal sections were stained with anti-SAA antibody (‘Materials and methods’) and anti-rabbit IgG-Cy3 (red), and counterstained with DAPI (blue). Scale bar = 50 µm. (C) Q-PCR determination of Saa expression levels in livers of mice on a normal or vitamin A-deficient diet. N = 5 mice/condition. (D) Liver sections were stained with anti-SAA antibody and anti-rabbit IgG-Cy3 (red), and counterstained with DAPI (blue). Scale bars = 50 µm. (E and F) Analysis of SAA expression in HepG2 cells. […] SAA expression was determined by Q-PCR. N = 3 independent experiments. Mean ± SEM is plotted. nd, not detected. *p < 0.05; **p < 0.01; ***p < 0.001. p values were determined by two-tailed Student's t test. DOI: http://dx.doi.org/10.7554/eLife.03206.004 Figure 1—figure supplement 1. […] Saa transcript abundance was determined by Q-PCR. […] Saa transcript abundance was determined by Q-PCR. […] Mean ± SEM is plotted. *p < 0.05, **p < 0.01. p values were determined by the Mann–Whitney test in (A) and two-tailed Student's t test in (B). […]

The test system of data set [2] is liver Saa1 and Saa2 expression. As to the kind of experiment: In vivo retinoic acid reconstitution, liver Saa expression by Q-PCR. Details: species or system mouse. The settings on record: vitamin A-depleted mice, intraperitoneal, daily for three days.
Source text: as §3

Data set [3] concerns the target human retinol binding protein 4 (hRBP4) (Homo sapiens, UniProt P02753). As to the kind of experiment: Fluorescence binding assay, hRBP4. Particulars: fluorescence quenching assay as in Figure 2.
Data set [4] deals with T2, recombinant human SAA1 (hSAA1) (Homo sapiens, UniProt P0DJI8, D78N/H89R).
T2 construct: corresponding to human apo-SAA1α except for the presence of an N-terminal methionine; purchased PeproTech (Rocky Hill, NJ)
T2 sequence (P0DJI8 19-122 D78N/H89R): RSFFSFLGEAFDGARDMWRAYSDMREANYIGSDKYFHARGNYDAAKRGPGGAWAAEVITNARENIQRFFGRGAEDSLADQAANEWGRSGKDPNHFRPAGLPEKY
As to the kind of experiment: Fluorometric retinoid binding assay, hSAA1. Particulars: for Kd: PBS, 0.5 μM protein. As for the experimental part: as §1, §2

The target in the next data set is T3, mouse SAA1 (mSAA1) (Mus musculus, UniProt P05366).
T3 construct: hexa-histidine tag followed by thrombin cleavage site (N, cleaved yes); made in house; host or cells: Escherichia coli BL21-CodonPlus (DE3)-RILP
T3 sequence (P05366 20-122): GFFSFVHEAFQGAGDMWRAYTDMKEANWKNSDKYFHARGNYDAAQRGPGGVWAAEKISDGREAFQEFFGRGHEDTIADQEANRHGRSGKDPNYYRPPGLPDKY
Put plainly: Fluorometric retinoid binding assay, mSAA1. Particulars: for binding (in words): tryptophan fluorescence quenching, excitation 296 nm, emission 334 nm. Here is the method: as §1, §2

Another data set addresses T4, mSAA3-W71A (Mus musculus, UniProt P04918, W71A).
T4 construct: hexa-histidine tag followed by thrombin cleavage site (N, cleaved yes); made in house; host or cells: Escherichia coli BL21-CodonPlus (DE3)-RILP
T4 sequence (P04918 19-122 W71A): T1 sequence (P04918 19-122) with W53A
Put plainly: Retinol binding assay, mSAA3-W71A mutant. Here is the method: The mSAA3-W71A mutant was generated using the QuickChange II site-directed mutagenesis kit (Agilent Technologies, Santa Clara, CA).
as §2

Data set [5] has as its system intestinal Saa1 and Saa2 expression. Put plainly: Saa expression in small intestinal explants by Q-PCR. Particulars: 1 µM retinol in 0.1% DMSO, ileum explants, 6 hr. The class given is cell-based, mouse.
Data set [6] deals with the molecule itself. As to the kind of experiment: crystal structure; selenomethionyl mSAA3, space group P6(2), two subunits in the asymmetric unit, SAD phasing, 2 Å; 75-80% MPD, 0.1 M sodium acetate pH 4.5, 20°C; quaternary structure by PDBePISA.
Setting [7] is: tryptophan fluorescence quenching, excitation 296 nm, emission 334 nm, 0.5 μM protein.
The mark [8] stands for this setting: tryptophan fluorescence quenching, excitation 296 nm, emission 334 nm.

For `CC(C)CCC[C@@H](C)[C@H]1CC[C@H]2[C@@H]3CC=C4C[C@@H](O)CC[C@]4(C)[C@H]3CC[C@]12C` [cholesterol], in the data set with hSAA1, mSAA1, and mSAA3, the “competitive inhibition of retinol binding” value was “unable to competitively inhibit retinol binding”.

On to `CC1=C(/C=C/C(C)=C/C=C/C(C)=C/C(=O)O)C(C)(C)CCC1` [retinoic acid], for which the Kd on mouse SAA3 (mSAA3) (setting [7]) came out at 224 nM; in data set [3], 139 ± 40 nM; in [4] (setting [8]), 268 nM. Moreover, the “expression of SAA1 and 2” value in data set [1] (100 nM retinoic acid in the presence of IL-1β and IL-6, retinoid-free medium) was “enhanced expression”. Moreover, in data set [2], the “expression of liver Saa1 and Saa2” value is on record as “elevated expression”. Moreover, the “binding (in words)” value on mouse SAA1 (mSAA1) is listed as “weak binding”.

Consider `CC1=C(/C=C/C(C)=C/C=C/C(C)=C/CO)C(C)(C)CCC1` [retinol], for which the Kd at mouse SAA3 (mSAA3) amounted to 145 nM; on mSAA3-W71A, 496 ± 127 nM; in data set [4] (all-trans-retinol titration, retinol fluorescence, excitation 348 nm, emission 460 nm), 259 nM; on mouse SAA1 (mSAA1), 169 nM. For the same molecule, the “expression of SAA1 and 2” value in data set [1] (1 μM retinol in the presence of IL-1β and IL-6, retinoid-free medium) is “enhanced expression”. In addition, the “expression of intestinal Saa1 and Saa2” value in data set [5] was “elevated expression”.

`CC(=O)OC/C=C(C)/C=C/C=C(C)/C=C/C1=C(C)CCCC1(C)C` [retinyl acetate]: in [4] (setting [8]), the dissociation constant (Kd) is 497 nM and 347 nM. At mouse SAA1 (mSAA1), the “binding (in words)” value is reported as “weak binding”.

Turning to `CCCCCCCCCCCCCCCC(=O)OC/C=C(C)/C=C/C=C(C)/C=C/C1=C(C)CCCC1(C)C` [retinyl palmitate], the “binding (in words)” value (on mouse SAA3 (mSAA3) (setting [8]); in [4] (setting [8]); on mouse SAA1 (mSAA1)) was “bound weakly” each time.

For the molecule `CC1=C(/C=C/C(C)=C/C=C/C(C)=C/C=C/C=C(C)/C=C/C=C(C)/C=C/C2=C(C)CCCC2(C)C)C(C)(C)CCC1` [β-carotene], the equilibrium dissociation constant (Kd) is 159 nM at mouse SAA3 (mSAA3) (setting [7]); 347 nM and 497 nM in data set [4] (setting [8]). Besides, the “binding (in words)” value at mouse SAA1 (mSAA1) is “weak binding”.

B1: mouse serum amyloid A3 (mSAA3) (natural protein, UniProt P04918 19-122, looked up)
chain: T1 sequence (P04918 19-122)
notes: cloned into pET28(a)+ between NdeI and BamHI; monomer is 12.2 kDa; The crystal used for the structure was selenomethionyl-derivatised (grown in defined media with selenomethionine); SEC and cross-linking used the native protein; A few vector residues probably remain at the N-terminus after thrombin cleavage (surmise); also called mouse SAA3; not shown: His6, N-terminal, cleaved
Take B1: the “stoichiometry N” value in data set [6] was determined as 4.
